{
  "source": "patent US20240124510A1",
  "about": "“Cyclic Glycoaminoacid Derivatives” (TFCHEM, priority 2021, published 2024)",
  "key": {"IL-6": {"tested_on": "IL-6", "assay": "Extracellular secretion of IL-6 by preadipocytes in inflammatory condition (ELISA)", "type": "cell-based, human", "settings": "for IL-6 secretion, Mean / IL-6 secretion, Values: normalized by cells number (DAPI); for IL-6 secretion, Values: individual values; for IL-6 secreted, normalized by cell number, in % of AcMC condition: preadipocytes/adipocytes", "protocol": "(§1) Preadipocytes have been isolated from human female hypodermis (body mass index <30 kg/m2 and <45 years old). Preadipocytes have been cultured for 24 h in 100 μl of DMEM-10% Fetal Bovine Serum (FBS) in 96-well plates. Then cells were treated to induce their differentiation in a classical or an inflammatory environment for 13 days.\n(§2) To induce the preadipocytes differentiation cells were incubated in a proadipogenic cocktail (PAC) including insulin, glucocorticoid, 3-isobutyl-1-methylxanthine (IBMX), and thiazolinedione in DMEM.\n(§3) To induce a fibro-inflammatory environment, cells were treated with an activated human macrophage-conditioned medium (AcMC) prepared in RPMI medium. A treatment with Dexamethasone (DXM) at 100 nM was used as anti-inflammatory response control. At D0: preadipocytes have been treated in the following conditions: • “Undifferentiation”: DMEM+¼ RPMI medium • “Differentiation”: PAC+¼ RPMI medium • “AcMC” i.e. inflammatory condition: PAC+¼ AcMC • “AcMC+DXM”: PAC+[…] AcMC+anti-inflammatory DXM at 100 nM • “AcMc+compounds”: PAC+14 AcMC+compounds to be tested\n(§4) All conditions have been performed in triplicate. The medium has been changed every 2 days for 13 days.\nAt D14: during the last 24 h of culture, the medium has been replaced by DMEM/F12 medium in all conditions, to collect cells' secretions.\nAfter 13 days, the 24 h culture media of the different conditions have been collected at the end of the treatment period. The concentrations of IL-6, procollagen I and MCP1 have been evaluated by ELISA assays using specific kits (for IL-6: DY206, DuoSet ELISA, R&D Systems; for Procollagen I: DY6220-05, DuoSet ELISA, R&D Systems; for MCP1: DY279-05 DuoSet ELISA, R&D Systems) according to the manufacture's recommendations. Values have been normalized to the cell number determined by DAPI staining.\nQuantity of IL-6 secreted in medium was measured and was normalized by cell number in each culture condition. Data are represented in percentage of proinflammatory control condition (AcMC condition)."}, "[1]": {"tested_on": "Normal human epidermal keratinocytes (NHEK)", "assay": "Total lipid neosynthesis in NHEK ([14C]-acetate incorporation)", "type": "cell-based", "settings": "48 hours; for [14C]-Acetate (cpm): individual replicates", "protocol": "Normal human epidermal keratinocytes (NHEK) were seeded in 12-well plates and incubated in culture medium for 24 hours. The medium was then replaced by culture medium containing or not (control) the test compounds or the reference (CaCl2+Vitamin C at 1.5 mM+200 μg/ml respectively) in the presence of the radioactive tracer [^14C]-acetate. Cells were incubated for 48 hours. All experimental conditions were performed in triplicate.\nCulture medium was Keratinocyte-SFM supplemented with Epidermal Growth Factor (EGF) 0.25 ng/ml, Pituitary extract (PE) 25 μg/ml and Gentamycin 25 μg/ml. The assay medium was Keratinocyte-SFM supplemented with Gentamycin 25 μg/ml.\nAt the end of incubation, cells were rinsed with PBS solution and then detached from their support by trypsin treatment. The [^14C]-acetate incorporation was then measured by liquid scintillation (measure of radioactivity). The incorporation is correlated with the total lipid neosynthesis. Results presented in Table 23 are expressed as cpm and % of control."}, "human preadipocytes": {"tested_on": "human preadipocytes", "assay": "Proliferation of preadipocytes in inflammatory condition (DAPI nuclei staining)", "type": "cell-based", "settings": "for Cells number at the end of the culture (DAPI staining), Values: individual values; for Cell number (DAPI staining): preadipocytes, inflammatory conditions (AcMC), AcMC control 12 819 AU", "protocol": "as §1, §2, §3, §4\nThe number of cells was determined for each condition by DAPI nuclei staining (nuclei) and expressed in arbitrary unit."}},
  "note": "Values joined by “and” are separate entries in the source; they are usually repeats but may differ in a detail not shown here. Equal values may be shown once.",
  "data": [
    {"smiles": "N[C@H]1CCCN(CC(F)(F)[C@]2(O)O[C@H](CO)[C@H](O)[C@H](O)[C@H]2O)C1=O", "note": "[Compound 6]", "values": [
      {"measurement": "IL-6 secretion, Mean", "setting": "IL-6; AcMC + 1 mg/ml", "value": "84.0 % of AcMC condition"},
      {"measurement": "IL-6 secretion, Values", "setting": "IL-6; AcMC + 1 mg/ml", "value": "66.1 % of AcMC condition and 95.1 % of AcMC condition and 90.8 % of AcMC condition"},
      {"measurement": "IL-6 secretion, Mean", "setting": "IL-6; AcMC + 2 mg/ml", "value": "28.1 % of AcMC condition"},
      {"measurement": "IL-6 secretion, Values", "setting": "IL-6; AcMC + 2 mg/ml", "value": "25.5 % of AcMC condition and 26.8 % of AcMC condition and 31.9 % of AcMC condition"},
      {"measurement": "IL-6 secreted, normalized by cell number, in % of AcMC condition", "setting": "IL-6; 1 mg/ml", "value": 84, "unit": "%"},
      {"measurement": "IL-6 secreted, normalized by cell number, in % of AcMC condition", "setting": "IL-6; 2 mg/ml", "value": 28.1, "unit": "%"},
      {"measurement": "IL-6 secreted, normalized by cell number, in % of AcMC condition", "setting": "IL-6; 2 mg/ml, listed as compound 6", "value": "28.1% and 28%"},
      {"measurement": "% Control (total lipid neosynthesis)", "setting": "[1]; 1 mg/ml", "value": 110, "unit": "%"},
      {"measurement": "% Stimulation (total lipid neosynthesis)", "setting": "[1]; 1 mg/ml", "value": 10, "unit": "%"},
      {"measurement": "[14C]-Acetate Mean (cpm)", "setting": "[1]; 1 mg/ml", "value": 78584, "unit": "cpm"},
      {"measurement": "[14C]-Acetate (cpm)", "setting": "[1]; 1 mg/ml", "value": "77267 cpm and 78905 cpm and 79581 cpm"},
      {"measurement": "% Control (total lipid neosynthesis)", "setting": "[1]; 3 mg/ml", "value": 121, "unit": "%"},
      {"measurement": "% Stimulation (total lipid neosynthesis)", "setting": "[1]; 3 mg/ml", "value": 21, "unit": "%"},
      {"measurement": "[14C]-Acetate Mean (cpm)", "setting": "[1]; 3 mg/ml", "value": 86022, "unit": "cpm"},
      {"measurement": "[14C]-Acetate (cpm)", "setting": "[1]; 3 mg/ml", "value": "84794 cpm and 87349 cpm and 85922 cpm and 86860 cpm"},
      {"measurement": "Stimulation of lipid synthesis compared to the control", "setting": "[1]; 1 mg/ml", "value": 10, "unit": "%"},
      {"measurement": "Stimulation of lipid synthesis compared to the control", "setting": "[1]; 3 mg/ml", "value": 21, "unit": "%"},
      {"measurement": "Cells number at the end of the culture, DAPI staining, Mean", "setting": "human preadipocytes; AcMC + 1 mg/ml", "value": 18154, "unit": "AU"},
      {"measurement": "Cells number at the end of the culture (DAPI staining), Values", "setting": "human preadipocytes; AcMC + 1 mg/ml", "value": "18502 AU and 17976 AU and 17985 AU"},
      {"measurement": "Cells number at the end of the culture, DAPI staining, Mean", "setting": "human preadipocytes; AcMC + 2 mg/ml", "value": 20147, "unit": "AU"},
      {"measurement": "Cells number at the end of the culture (DAPI staining), Values", "setting": "human preadipocytes; AcMC + 2 mg/ml", "value": "20261 AU and 20369 AU and 19811 AU"},
      {"measurement": "Cell number (DAPI staining)", "setting": "human preadipocytes; 1 mg/ml", "value": "18 154 AU"},
      {"measurement": "Cell number (DAPI staining)", "setting": "human preadipocytes; 2 mg/ml", "value": "20 147 AU"}
    ]}
  ]
}
